Assay results published in US7838493B2, “Acetylcholinesterase (ACHE)-derived peptide as an inducer of granulocytopoiesis, uses and methods thereof” (priority 2004, dated 2010).

System: human CD34+ hematopoietic stem cells
Assay: Ex vivo expansion of CD34+ cells in liquid culture, flow cytometric immunophenotyping
Type: cell-based
Method: Mean fluorescence intensity (MFI) served as a measure of AChE-R content in analyzed cells. When multiplied by the percent fractions of AChE-R-positive cells, the MFI values reflected the total content of AChE-R in the analyzed blood cell samples. Myeloid markers of maternal blood cells were analyzed by the following combination of monoclonal antibodies: anti-CD15-FITC (Dako, Glostrup Denmark), anti-CD33-PE (BD Bioscience, Palo Alto, Calif.), anti-CD45-PerCP (BD Bioscience, Palo Alto, Calif.) and anti-CD14-APC (Caltag, Burlingame, Calif.). Corresponding MFI values reflected the amount of receptor on the surface of granulocytes and monocytes. Expanded CD34+ cells were analyzed by 4-color flow cytometry with FITC-conjugated anti-CD15 and PE-conjugated anti-CD33, PerCP-conjugated anti-CD34, and APC-conjugated anti-CD38 (all antibodies purchased from BD Bioscience, Palo Alto, Calif.) using a FACSCalibur with CellQuest software (BD Bioscience, Palo Alto, Calif.). Relevant isotype control antibodies were used to detect non-specific background fluorescence. The total number of expanded cells for each lineage was calculated by multiplying their relative proportions by the number of viable cells in each culture.
PBAN (a negative control insect peptide) [Nijholt (2003) id ibid.] were also used for cell expansion. […] […] At 3-day intervals, cultures were supplemented with the same growth factor(s) and cells were counted by trypan blue exclusion and diluted to maintain cultures at concentrations no higher then 100,000 cells/mL [Pick M. et al. (2002) Exp. Hematol. 30:1079]. Cultured cells were injected into NOD/SCID mice at a concentration of 100,000 or 200,000 together with 100,000 unexpanded CD34+ cells per mouse as indicated.
Peptide controls (ASP40 and PBAN) were used to explore the specificity of this response.

[1] = Table 4b, cortisol (1.2 nM), day 14

## C[C@]12CCC(=O)C=C1CC[C@@H]1[C@@H]2[C@@H](O)C[C@@]2(C)[C@H]1CC[C@]2(O)C(=O)CO [Cortisol, cortisol]
CD34+ cells, 2-week incubation, versus control
  total number of cells: not
Table 4a, cultured CD34+ cells, cortisol 1.2 μM, viable cells/ml at day 14 divided by seeded cells (50,000)
  Cell expansion index: 1.55 ± 0.07
Table 4b, typical CD34+ culture, cortisol (1.2 nM), day 14
  Cell expansion index: 1.6
[1]
  CD33+ CD15+ Granulocytes: 28.5 cell counts × 10^3
  CD33+ CD15− Immature myeloids: 13.0 cell counts × 10^3
  CD33− CD15+ Mature granulocytes: 15.4 cell counts × 10^3
  CD34+ CD33+ Committed myeloids: 10.6 cell counts × 10^3
  CD34+ CD38+ Committed progenitors: 11.0 cell counts × 10^3
